This is an account of results in paper PMC6273912, “Novel 5-Substituted 2-(Aylmethylthio)-4-chloro-N-(5-aryl-1,2,4-triazin-3-yl)benzenesulfonamides: Synthesis, Molecular Structure, Anticancer Activity, Apoptosis-Inducing Activity and Metabolic Stability” (Molecules, 2016).

Like-named read-outs stand apart in the source and are kept apart here.

Data set [1] concerns HeLa as well as HCT-116 cells. Description: MTT cell viability assay, HeLa and HCT-116. The data set is classed as cell-based, human. Conditions: summary over the two cell lines; for IC50: Homo sapiens, read-out: IC50 toward HeLa as well as HCT-116. How it is done: (§1) All chemicals, if not stated otherwise, were obtained from Sigma-Aldrich (St. Louis, MO, USA). The MCF-7 cell line was purchased from Cell Lines Services (Eppelheim, Germany), the HeLa and HCT-116 cell lines were obtained from the Department of Microbiology, Tumor and Cell Biology, Karolinska Institute (Stockholm, Sweden). Cells were cultured in Dulbecco’s modified Eagle’s medium (DMEM) supplemented with 10% fetal bovine serum, 2 mM glutamine, 100 units/mL penicillin, and 100 μg/mL streptomycin. Cultures were maintained in a humidified atmosphere with 5% CO2 at 37 °C in an incubator (HeraCell, Heraeus, Langenselbold, Germany).
(§2) Cell viability was determined using the MTT (3-(4,5-dimethylthiazol-2-yl)-2,5-diphenyl-tetrazoliumbromide) assay. Stock solutions of the studied compounds were prepared in 100% DMSO. […] Cells were seeded in 96-well plates at a density of 5 × 10^3 cells/well and treated for 72 h with the examined compounds in the concentration range 1–100 μM (1, 10, 25, 50 and 100 μM). Following treatment, MTT (0.5 mg/mL) was added to the medium and cells were further incubated for 2 h at 37 °C. Cells were lysed with DMSO and the absorbance of the formazan solution was measured at 550 nm with a plate reader (1420 multilabel counter, Victor, Jügesheim, Germany). […] The experiment was performed in triplicate. Values are expressed as the mean ± SD of at least three independent experiments.

In the next data set the test system is HCT-116 (colon cancer). The experiment in a line: MTT cell viability assay, HCT-116. Conditions: 72 h of incubation, mean ± SD. The data set is classed as cell-based, human. How it is done: as §1, §2
Data set [2] in a line: Metabolic stability with human liver microsomes and NADPH. Conditions: liver microsomes. Format: in vitro ADME. How it is done: Stock solutions of studied compounds were prepared at concentration of 10 mM in DMSO. […] Incubation mixture contained 10 μM of a studied derivative, 1 mM of NADPH (Sigma-Aldrich) and 0.5 mg/mL of human liver microsomes (HLM, Sigma-Aldrich) in potassium phosphate buffer (0.1 M, pH 7.4). Incubation was carried out in thermostat at 37 °C and started by addition of studied compound. 50 μL samples were taken after 5, 15, 30, 45 and 60 min. Enzymatic reaction was terminated by the addition of the equal volume of ice-cold acetonitrile containing 10 μM of alprazolam (Sigma-Aldrich) serving as internal standard (IS). Control incubations were performed without NADPH to assess chemical instability. After collection, samples were immediately centrifuged (10 min, 10,000 rpm) and resulted supernatant was directly analyzed or kept in −80 °C until LC-MS analysis. Natural logarithm of a compound over IS peak area ratio was plotted versus incubation time. Metabolic half-time (t1/2) was calculated from the slope of the linear regression, as reported in [48].
LC-MS analysis was performed on an Agilent 1260 system coupled to SingleQuad 6120 mass spectrometer (Agilent Technologies, Santa Clara, CA, USA). Ascentis Express ES-CN (2.1 mm × 100 mm, 2.7 μm, Supelco Analytical, Bellefonte, PA, USA) was used in reversed-phase mode with gradient elution starting with 50% of phase A (10 mM ammonium formate in water) and 50% of phase B (10 mM ammonium formate in acetonitrile-water mixture, 95:5 v/v). […] Total analysis time was 10 min at 25 °C, flow rate was 0.4 mL/min and the injection volume was 20 μL. The mass spectrometer was equipped with electrospray ion source and operated in positive ionization. Mass analyzer was set individually to each compound to detect [M + H]^+ pseudomolecular ions. MSD parameters of the ESI source were as follows: nebulizer pressure 50 psig (N2), drying gas […] (N2), drying gas temperature 300 °C, capillary voltage 3.5 kV, fragmentor voltage 100 V.

In the next data set the test system is HCT-116, HeLa and MCF-7. Description: MTT cell viability assay, all tested cell lines together. The data set is classed as cell-based. Conditions: Homo sapiens; average over HCT-116, HeLa and MCF-7; read-out: average IC50 against all tested cell lines. How it is done:
as §1, §2

The next data set has as its system HeLa (cervical cancer). Description: MTT cell viability assay, HeLa. Format: cell-based, human. Conditions: for IC50: 72 h of incubation, mean ± SD. How it is done: as §1, §2
A further data set deals with MCF-7 (breast cancer). The experiment in a line: MTT cell viability assay, MCF-7. The data set is classed as cell-based, human. Conditions: Homo sapiens, MCF7, 72 h of incubation, mean ± SD. The procedure: as §1, §2
The mark [3] stands for this setting: pH 7.4, human liver microsomes 0.5 mg/mL, 1 mM NADPH, 10 μM compound, pH 7.4, 37 °C, up to 60 min, read-out: In Vitro Metabolic Half-Life t1/2.

Take `Cc1cc(S(=O)(=O)Nc2nncc(-c3ccc(C(F)(F)F)cc3)n2)c(SCc2ccc(C(F)(F)F)cc2)cc1Cl` [Compound 34, 4-Chloro-5-methyl-2-[4-(trifluoromethyl)benzylthio]-N-[5-(4-trifluoromethylphenyl)-1,2,4-triazin-3-yl]-benzenesulfonamide]: the IC50 was 51 to 85 µM in data set [1]; 51 ± 1 µM in the data set with HCT-116 (colon cancer) (Homo sapiens, HCT-116, 72 h); under 71 µM with HCT-116, HeLa and MCF-7; 73 ± 1 µM in the data set with HeLa (cervical cancer) (Homo sapiens, 72 h); 68 ± 3 µM with MCF-7 (breast cancer). Also, the half-life at 10 μM is over 60 min in data set [2] (setting [3]) and 154 min in data set [2] (pH 7.4, value in parentheses beside >60, beyond the 60 min incubation, human liver microsomes, NADPH, read-out: In Vitro Metabolic Half-Life t1/2 (min), value in parentheses).

Regarding `COc1cccc(-c2cnnc(NS(=O)(=O)c3cc(C)c(Cl)cc3SCc3ccccc3)n2)c1` [Compound 30, 2-Benzylthio-4-chloro-N-[5-(3-methoxyphenyl)-1,2,4-triazin-3-yl]5-methylbenzenesulfonamide], the IC50 came to 85 ± 2 µM with HCT-116 (colon cancer) (Homo sapiens, HCT-116, 72 h); 90 ± 4 µM in the data set on HeLa (cervical cancer) (Homo sapiens, 72 h); 67 ± 1 µM in the data set on MCF-7 (breast cancer). For the same molecule, the half-life at 10 μM in data set [2] (setting [3]) was 24.9 min.

Take `Cc1cc(S(=O)(=O)Nc2nncc(-c3ccc(C(F)(F)F)cc3)n2)c(SCc2ccccc2)cc1Cl` [Compound 28, 2-Benzylthio-4-chloro-5-methyl-N-[5-(4-trifluoromethylphenyl)-1,2,4-triazin-3-yl]benzenesulfonamide]: in data set [1], the “IC50 toward HeLa as well as HCT-116” value was “loss of activity”. Also, the IC50 in the data set with HCT-116 (colon cancer) (Homo sapiens, HCT-116, 72 h) was found to be 200 ± 4 µM; in the data set with HeLa (cervical cancer) (Homo sapiens, 72 h), 100 ± 6 µM; in the data set with MCF-7 (breast cancer), 120 ± 5 µM.

Regarding `COc1ccc(-c2cnnc(NS(=O)(=O)c3cc(C(=O)Nc4ccc(Cl)cc4)c(Cl)cc3SCc3ccccc3)n2)cc1` [Compound 47, 4-Benzylthio-2-chloro-N-(4-chlorophenyl)-5-{N-[5-(4-methoxyphenyl)-1,2,4-triazin-3-yl]sulfamoyl}benzamide], the IC50 stood at 75 ± 5 µM in the data set on HCT-116 (colon cancer) (Homo sapiens, HCT-116, 72 h); 79 ± 1 µM in the data set with HeLa (cervical cancer) (Homo sapiens, 72 h); 78 ± 3 µM with MCF-7 (breast cancer). For the same molecule, the half-life at 10 μM in data set [2] (setting [3]) was 17.5 min.

`Cc1ccc(NC(=O)c2cc(S(=O)(=O)Nc3nncc(-c4ccc(C(F)(F)F)cc4)n3)c(SCc3ccccc3)cc2Cl)cc1` [Compound 52, 4-Benzylthio-2-chloro-N-(4-methylphenyl)-5-{N-[5-(4-trifluoromethylphenyl)-1,2,4-triazin-3-yl]sulfamoyl}-benzamide]: the IC50 in the data set on HCT-116 (colon cancer) (Homo sapiens, HCT-116, 72 h) worked out at 70 ± 2 µM; in the data set with MCF-7 (breast cancer), 69 ± 1 µM. Also, the half-life at 10 μM in data set [2] (setting [3]) is 26.5 min. The viability at 100 µM with HeLa (cervical cancer) (Homo sapiens, HeLa, 72 h, 100 μM, read-out: Viability of cell line at 100 μM (HeLa)) worked out at 100%.

As to `COc1ccc(-c2cnnc(NS(=O)(=O)c3cc(C)c(Cl)cc3SCc3cccc4ccccc34)n2)cc1` [Compound 38, 4-Chloro-N-[5-(4-methoxyphenyl)-1,2,4-triazin-3-yl]-5-methyl-2-[(naphthalene-1-yl)methylthio]benzene-sulfonamide], the IC50 with HCT-116 (colon cancer) was 38 ± 2 µM; with HCT-116 (colon cancer) (Homo sapiens, HCT-116, 72 h) it was 36 to 38 µM; with HCT-116, HeLa and MCF-7, 50 µM; in the data set with HeLa (cervical cancer), 42 ± 1 µM; in the data set with HeLa (cervical cancer) (Homo sapiens, 72 h) it was 34 to 42 µM; in the data set with MCF-7 (breast cancer), 69 ± 1 µM. In addition, the half-life at 10 μM in data set [2] (setting [3]) was under 5 min.

For `Cc1cc(S(=O)(=O)Nc2nncc(-c3ccc(C(F)(F)F)cc3)n2)c(SCc2c(C)noc2C)cc1Cl` [Compound 40, 4-Chloro-2-[(3,5-dimethylizoxazol-4-yl)methylthio]-5-methyl-N-[5-(4-trifluoromethylphenyl)-1,2,4-triazin-3-yl]benzenesulfonamide], the IC50 is 51 to 85 µM in data set [1]; 77 ± 1 µM in the data set with HCT-116 (colon cancer) (Homo sapiens, HCT-116, 72 h); 85 ± 2 µM in the data set on HeLa (cervical cancer) (Homo sapiens, 72 h); 98 ± 3 µM in the data set with MCF-7 (breast cancer).

On to `COc1ccc(-c2cnnc(NS(=O)(=O)c3cc(C)c(Cl)cc3SCc3ccc(C(F)(F)F)cc3)n2)cc1` [Compound 35, 4-Chloro-N-[5-(4-methoxyphenyl)-1,2,4-triazin-3-yl]-5-methyl-2-[4-(trifluoromethyl)benzylthio]benzene-sulfonamide], for which the IC50 in the data set with HCT-116 (colon cancer) (Homo sapiens, HCT-116, 72 h) is 68 ± 3 µM; in the data set with HCT-116, HeLa and MCF-7 it was under 71 µM; in the data set on HeLa (cervical cancer) (Homo sapiens, 72 h) it was 69 ± 1 µM; in the data set on MCF-7 (breast cancer) it was 78 ± 2 µM. Further, the half-life at 10 μM in data set [2] (setting [3]) came to 42.4 min.

For the molecule `Cc1cc(S(=O)(=O)Nc2nncc(-c3cccc(F)c3)n2)c(SCc2cccc3ccccc23)cc1Cl` [Compound 36, 4-Chloro-N-[5-(3-fluorophenyl)-1,2,4-triazin-3-yl]-5-methyl-2-[(naphthalene-1-yl)methylthio]benzene-sulfonamide], the IC50 in the data set on HCT-116 (colon cancer) (Homo sapiens, HCT-116, 72 h) was 49 ± 2 µM; with HCT-116, HeLa and MCF-7, under 71 µM; in the data set with HeLa (cervical cancer) (Homo sapiens, 72 h), 55 ± 2 µM; with MCF-7 (breast cancer) it was 96 ± 4 µM. Besides, in data set [2] (setting [3]), the half-life at 10 μM is 13.9 min.

On to `Cc1cc(S(=O)(=O)Nc2nncc(-c3cccc(F)c3)n2)c(SCc2c(C)noc2C)cc1Cl` [Compound 39, 4-Chloro-2-[(3,5-dimethylizoxazol-4-yl)methylthio]-N-[5-(3-fluorophenyl)-1,2,4-triazin-3-yl]-5-methyl-benzenesulfonamide], for which the melting point was in the range of 208 to 211 °C. In addition, 83 ± 2 µM corresponded to half-maximal inhibition in the data set on HCT-116 (colon cancer) (Homo sapiens, HCT-116, 72 h) (IC50). Further, in the data set on HeLa (cervical cancer) (Homo sapiens, 72 h), the midpoint of inhibition, the IC50, lay at 93 ± 1 µM. Also, the IC50 with MCF-7 (breast cancer) was 95 ± 3 µM.

Take `COc1ccc(-c2cnnc(NS(=O)(=O)c3cc(C)c(Cl)cc3SCc3ccccc3)n2)cc1OC` [Compound 31, 2-Benzylthio-4-chloro-N-[5-(3,4-dimethoxyphenyl)-1,2,4-triazin-3-yl]-5-methylbenzenesulfonamide]: the IC50 with HCT-116 (colon cancer) (Homo sapiens, HCT-116, 72 h) worked out at 140 ± 7 µM; in the data set on HeLa (cervical cancer) (Homo sapiens, 72 h), 150 ± 6 µM; in the data set on MCF-7 (breast cancer), 77 ± 2 µM. Further, the half-life at 10 μM in data set [2] (setting [3]) came to 17.6 min.
